The text below walks through data of patent US20260028390A1, “ALPHA1-ANTITRYPSIN FOR USE IN THE TREATMENT OF DISEASES OR DISORDERS OF THE NERVOUS SYSTEM SUCH AS CHRONIC INFLAMMATORY DEMYELINATING POLYNEUROPATHY” (Ageronix SA, priority 2022, published 2026).

Series [1] concerns SH-SY5Y cells. As to the kind of experiment: Cell viability assay (CCK-8) of SH-SY5Y treated with 6-OHDA. It counts as cell-based. Particulars: 6-OHDA combined with AAT 25 μM, CCK-8 absorbance 450 nm. Here is the method:
SH-SY5Y cells, which are commonly used to model neurodegenerative disorders, were used to produce an in vitro Parkinson's model (Que R, et al., 2021, Front. Immunol. 12). Cells were cultured in DMEMF12/Glutamax supplemented with 10% FBS.
(§1) Cells were treated for 24 hours with the neurotoxin 6-hydroxydopamine (6-OHDA, Sigma Aldrich 162957) at 50, 100 μM concentrations alone or in combination with AAT 25 μM (AAT plasma derived, Sigma Aldrich batch A9024). Cells treated with AAT alone or in combination with 6-OHDA for 24 hours, were then incubated with fresh AAT for additional 24 hours. Control cells were treated with PBS.
At day 0 cells were plated in equally number in 24-well plate, the day after they were treated as described above, and final total cell count was performed at day 4 of culture (cell growth). Cell viability was assessed with Cell Counting Kit-8 (CCK-8; Sigma Aldrich 96992). After treatments, cells were incubated with 10 μl of CCK-8 solution for 2 hours in the incubator. Absorbance was measured at 450 nm using SpectraMax iD3 Microplate Reader. Experiments were performed in triplicate.

Series [2] can be described thus: Body weight, CMT1A mouse study (AAT 50 mg/kg sc twice daily). It counts as in vivo. The source says: As a murine model of CMT1A we used C3-PMP22 transgenic mice (B6.Cg-Tg(PMP22)C3Fbas/J, The Jackson Laboratory) which express three copies of a wild-type human peripheral myelin protein 22 (PMP22) gene (Verhamme, Camiel, et al. Journal of Neuropathology & Experimental Neurology 70.5 (2011): 386-398). Mice were housed in macrolon cages with filter hoods, in a continuously air-filtered room, thereby avoiding contamination. During experiments, paired animals were caged at a constant temperature with a day/night cycle of 12/12 hours. Animals were fed (control tap water and nutrition) ad libitum. Animal protocol is approved by the Animal Studies Committee of Languedoc Roussillon. This protocol and the laboratory procedures comply with French legislation, which implements the European Directives (Reference Number: D3417223, APAFIS #23920-2020020320279696 v3). Animal health was followed on a daily basis to ensure that only animals in good health enter the testing procedures and follow up the study.
Animals were split in 3 groups (wild-type control (subcutaneous 0.9% NaCl), CMT1A-vehicle (subcutaneous 0.9% NaCl), CMT1A-human alpha-1 antitrypsin (subcutaneous, twice daily, 50 mg/kg per injection)) of 3 mice each (3 weeks old males of 18±2.5 g at the beginning of study) and all went through the following protocol after 7 days of acclimation on site.

The target of series [3] is T1, Recombinant Human TACE/ADAM17 (Homo sapiens, UniProt P78536).
T1 construct: purchased R&D Systems 930-ADB-010
The experiment in a line: Cell free TACE/ADAM17 activity. Particulars: cell-free assay; AAT Sigma Aldrich, batch A6150; read-out: IC50 of TACE activity inhibition. It counts as biochemical. The protocol: TACE activity and its inhibition by human AAT (AAT) was performed with Recombinant Human TACE/ADAM17 kit (930-ADB and ES003, R&D Systems) in black 96-well immuno plates (437111, ThermoFisher Scientific). The enzymatic activity of TACE/ADAM17 was measured by mixing 0.005 μg of rhTACE with 10 μM of Mca-PLAQAV-Dpa-RSSSR-NH2 fluorogenic peptide substrate III in assay buffer (25 mM Tris, 2.5 μM ZnCl2, 0.005% Brij-35 (w/v), pH 9.0) to a final volume of 100 μl. AAT (Sigma Aldrich, batch A6150) was resuspended in water (vehicle), control TACE/ADAM17 activity was assessed in presence of the vehicle (amount used for AAT 100 μM). AAT was added at different concentration (0, 6.25, 12.5, 25, 50 and 100 μM) to assess its dose-dependent inhibition of TACE/ADAM17. All conditions were performed in triplicates. Activity was measured as relative fluorescent unit (RFU) in a kinetic mode (9 time points over 5 min) with a SpectraMax iD3 Microplate Reader (low PMT gain, is exposition, top read at 1 mm, wavelength: excitation 320 nm, emission 405 nm). Bar graph as percentage of control activity was obtained by averaging the values obtained over the 5 min for each of the condition.
TACE activity is assessed according to the manufacturer's instruction (Recombinant Human TACE/ADAM17 kit, 930-ADB, R&D Systems) in kinetic mode, without or with different AAT concentration. All conditions were done in triplicates and are shown as mean±SD (FIGS. 5A, 5B and 5C).
ADAM-17 activity and its inhibition by human peptide 8 was measured with Recombinant Human ADAM-17 kit (Recombinant Human TACE/ADAM17 Protein, CF: 930-ADB-010 and Mca-PLAQAV-Dpa-RSSSR-NH2 Fluorogenic Peptide Substrate:ES003; R&D Systems) in black 96-well immunoplates (437111; Thermo Fisher Scientific). The enzymatic activity of ADAM-17 was measured by mixing 0.005 μg of rhADAM-17 with 10 μM of Mca-PLAQAV-Dpa-RSSSR-NH2 fluorogenic peptide substrate III in assay buffer (25 mM Tris, 2.5 μM ZnCl2, 0.005% Brij-35 (w/v), pH 9.0) to a final volume of 100 μL. Peptide 8 (Syngene) was dissolved in DMSO and diluted to the desired concentration in assay buffer. Control ADAM-17 activity was assessed in the presence of the assay buffer. […] All conditions were performed in triplicate. Activity was measured as relative fluorescent units (RFU) in endpoint mode (5 min) with a SpectraMax iD3 Microplate Reader (automatic PMT gain, wavelengths: excitation 320 nm, emission 405 nm).

For series [4], the system named is IL-6. The experiment in a line: Human IL-6 immunoassay on SH-SY5Y cell supernatant. It counts as cell-based. Particulars: medium from cells treated with AAT vs 6-OHDA induced, not significant. Here is the method: as §1
Human 11-6 immunoassay (R&D D6050) was performed on cells supernatant. Briefly, 40000 cells were plated in 24-well plate and treated the day after as described in paragraph “Cells and treatment”. At the end of the treatment, cells were washed with PBS and incubated with 2% FBS medium for 24 hours, then cell culture supernatants were collected and centrifuged to remove particulates. Assay procedure was performed as described by manufactured instructions, on standard and samples duplicates. Absorbance was measured at 450 nm using SpectraMax iD3 Microplate Reader. A standard curve was prepared from seven IL-6 standard dilutions and IL-6 sample concentrations determined.

Series [5] relates to CMT1A mice B6.Cg-Tg(PMP22)C3Fbas/J. As to the kind of experiment: Grip strength, CMT mice treated with AAT 180 mg/kg/day sc. It counts as in vivo, mouse. Particulars: 8 weeks old, CMT + hAAT 180 mg/kg/day SC, individual animal.

pIC50: −log10 of the molar value. Where “and” joins values, the source holds several entries; their conditions need not be identical. Identical values can stand only once.

Broadly, the pIC50 is the IC50 on a negative log10 scale, so that one unit is a factor of ten.

T1 sequence (P78536 215-671 limits assumed): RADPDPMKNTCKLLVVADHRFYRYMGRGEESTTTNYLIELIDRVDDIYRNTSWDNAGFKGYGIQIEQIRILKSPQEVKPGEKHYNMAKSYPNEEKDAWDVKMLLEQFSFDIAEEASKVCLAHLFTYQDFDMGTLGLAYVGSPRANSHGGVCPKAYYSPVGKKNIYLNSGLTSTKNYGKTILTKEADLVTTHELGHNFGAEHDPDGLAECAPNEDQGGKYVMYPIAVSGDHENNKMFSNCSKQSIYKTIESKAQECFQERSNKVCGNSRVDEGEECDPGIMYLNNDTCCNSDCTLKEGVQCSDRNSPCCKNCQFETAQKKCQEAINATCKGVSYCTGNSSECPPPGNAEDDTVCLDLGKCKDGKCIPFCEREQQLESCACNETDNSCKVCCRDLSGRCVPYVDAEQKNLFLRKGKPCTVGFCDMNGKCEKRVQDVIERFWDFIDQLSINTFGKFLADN

Turning to alpha1-antitrypsin (AAT) protein, in series [1], the “cell count and viability compared to 6-OHDA treatment alone” value is given as “significantly enhanced”. Moreover, the “Body weight, MEAN” value in series [2] (CMT1A + hAAT, 3rd column, head prints 6 weeks old, in g (unit assumed)) is 19.73. Further, the “Body weight, individual mice” value in series [2] (CMT1A + hAAT, 3rd column, head prints 6 weeks old, listed as hAAT, in g (unit assumed)) is 19.6 and 20.5 and 19.1. Moreover, the “body weight loss in the AAT treated group compared to the vehicle group” value in series [2] (CMT1A mice, 50 mg/kg sc twice daily, two weeks) is given as “no observable body weight loss”. Besides, in series [3], the pIC50 is 4.82. Also, the “IL-6 in cell supernatant” value in series [4] is reported as “less concentration”. In addition, in series [5], the “Grip strength, Mean/animal” value was 4.83 NEWTONS and 2.73 NEWTONS and 2.97 NEWTONS and 4.09 NEWTONS and 5.05 NEWTONS and 7.59 NEWTONS and 5.53 NEWTONS and 5.68 NEWTONS; the “Grip strength, set 1” value was 3.97 NEWTONS and 2.15 NEWTONS and 3.47 NEWTONS and 4.13 NEWTONS and 4.85 NEWTONS and 8.17 NEWTONS and 6.20 NEWTONS and 4.87 NEWTONS; the “Grip strength, set 2” value is 5.37 NEWTONS and 4.34 NEWTONS and 2.22 NEWTONS and 4.58 NEWTONS and 3.84 NEWTONS and 5.69 NEWTONS and 4.40 NEWTONS and 5.39 NEWTONS; the “Grip strength, set 3” value is 5.14 NEWTONS and 1.69 NEWTONS and 3.21 NEWTONS and 3.55 NEWTONS and 6.47 NEWTONS and 8.92 NEWTONS and 5.99 NEWTONS and 6.77 NEWTONS.
